Laboratory results from PubChem BioAssay AID1918939 (Molecular Pharmacology Branch, DTP, NCI, 2023).
“And” between values parts separate entries of the source, which are not always exact repeats. Equal values may be shown once.

Test system: 653999-131-R-J2-PDC complex spheroid viability
Test: Anticancer human tumor 653999-131-R-J2-PDC patient-derived lung adenocarcinoma cell line growth inhibition
Details: for viability, T/C: stronger effect = lower value
Summary of the method: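 Multicellular complex spheroids of tumor cells with human endothelial cells (HUVEC) and mesenchymal stem cells; the LSD1 inhibitor iadademstat was combined with standard-of-care or investigational agents. Top concentration at or near clinical Cmax, half-log dilutions; final DMSO ≤0.25%.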

[1] = curve of first compound, second compound 0.1 µM
[2] = curve of first compound, second compound 0.316 µM
[3] = curve of first compound, second compound 1 µM
[4] = curve of first compound, second compound 3.16 µM
[5] = curve of first compound, second compound 10 µM
[6] = second compound 0.1 µM, first compound 0.00949 µM
[7] = second compound 0.1 µM, first compound 0.03 µM
[8] = second compound 0.1 µM, first compound 0.0949 µM
[9] = second compound 0.1 µM, first compound 0.3 µM
[10] = second compound 0.1 µM, first compound 0.949 µM
[11] = second compound 0.1 µM, first compound 3 µM
[12] = second compound 0.316 µM, first compound 0.00949 µM
[13] = second compound 0.316 µM, first compound 0.03 µM
[14] = second compound 0.316 µM, first compound 0.0949 µM
[15] = second compound 0.316 µM, first compound 0.3 µM
[16] = second compound 0.316 µM, first compound 0.949 µM
[17] = second compound 0.316 µM, first compound 3 µM
[18] = second compound 1 µM, first compound 0.00949 µM
[19] = second compound 1 µM, first compound 0.03 µM
[20] = second compound 1 µM, first compound 0.0949 µM
[21] = second compound 1 µM, first compound 0.3 µM
[22] = second compound 1 µM, first compound 0.949 µM
[23] = second compound 1 µM, first compound 3 µM
[24] = second compound 3.16 µM, first compound 0.00949 µM
[25] = second compound 3.16 µM, first compound 0.03 µM
[26] = second compound 3.16 µM, first compound 0.0949 µM
[27] = second compound 3.16 µM, first compound 0.3 µM
[28] = second compound 3.16 µM, first compound 0.949 µM
[29] = second compound 3.16 µM, first compound 3 µM
[30] = second compound 10 µM, first compound 0.00949 µM
[31] = second compound 10 µM, first compound 0.03 µM
[32] = second compound 10 µM, first compound 0.0949 µM
[33] = second compound 10 µM, first compound 0.3 µM
[34] = second compound 10 µM, first compound 0.949 µM
[35] = second compound 10 µM, first compound 3 µM
[36] = second compound 0.1 µM, first compound 0.00316 µM
[37] = second compound 0.1 µM, first compound 0.01 µM
[38] = second compound 0.1 µM, first compound 0.0316 µM
[39] = second compound 0.1 µM, first compound 0.1 µM
[40] = second compound 0.316 µM, first compound 0.00316 µM
[41] = second compound 0.316 µM, first compound 0.01 µM
[42] = second compound 0.316 µM, first compound 0.0316 µM
[43] = second compound 0.316 µM, first compound 0.1 µM
[44] = second compound 1 µM, first compound 0.00316 µM
[45] = second compound 1 µM, first compound 0.01 µM
[46] = second compound 1 µM, first compound 0.0316 µM
[47] = second compound 1 µM, first compound 0.1 µM
[48] = second compound 3.16 µM, first compound 0.00316 µM
[49] = second compound 3.16 µM, first compound 0.01 µM
[50] = second compound 3.16 µM, first compound 0.0316 µM
[51] = second compound 3.16 µM, first compound 0.1 µM
[52] = second compound 10 µM, first compound 0.00316 µM
[53] = second compound 10 µM, first compound 0.01 µM
[54] = second compound 10 µM, first compound 0.0316 µM
[55] = second compound 10 µM, first compound 0.1 µM
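Further: spheroids exposed to agents for seven days before readout.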

CCN(c1cc(-c2ccc(CN3CCOCC3)cc2)cc(C(=O)NCc2c(C)cc(C)[nH]c2=O)c1C)C1CCOCC1 + NC1CC1c1ccc(-c2cccc(O)c2)cc1
IC50 [1]: > 3000 nM
IC50 [2]: > 3000 nM
IC50 [3]: > 3000 nM
IC50 [4]: > 3000 nM
IC50 [5]: > 3000 nM
viability, T/C [6]: 92.9%
viability, T/C [7]: 104%
viability, T/C [8]: 97.8%
viability, T/C [9]: 87.4%
viability, T/C [10]: 94.1%
viability, T/C [11]: 69.5%
viability, T/C [12]: 102%
viability, T/C [13]: 107%
viability, T/C [14]: 97.8%
viability, T/C [15]: 80.1%
viability, T/C [16]: 79.3%
viability, T/C [17]: 69.7%
viability, T/C [18]: 96.1%
viability, T/C [19]: 97.5%
viability, T/C [20]: 89.4%
viability, T/C [21]: 95.4%
viability, T/C [22]: 93.6%
viability, T/C [23]: 71.8%
viability, T/C [24]: 108%
viability, T/C [25]: 108%
viability, T/C [26]: 109%
viability, T/C [27]: 93.8%
viability, T/C [28]: 89.3%
viability, T/C [29]: 76.2%
viability, T/C [30]: 101%
viability, T/C [31]: 113%
viability, T/C [32]: 97%
viability, T/C [33]: 93%
viability, T/C [34]: 90.4%
viability, T/C [35]: 86.7%

Nc1ccccc1NC(=O)c1ccc(CNC(=O)OCc2cccnc2)cc1 + NC1CCC(NC2CC2c2ccccc2)CC1
IC50 [1]: 349 nM
IC50 [2]: 228 nM
IC50 [3]: 394 nM
IC50 [4]: 294 nM
IC50 [5]: 301 nM
viability, T/C [6]: 68.4%
viability, T/C [7]: 68.1%
viability, T/C [8]: 57.1%
viability, T/C [9]: 54.3%
viability, T/C [10]: 35.8%
viability, T/C [11]: 9.78%
viability, T/C [12]: 70.5%
viability, T/C [13]: 61.3%
viability, T/C [14]: 56.1%
viability, T/C [15]: 49%
viability, T/C [16]: 33.2%
viability, T/C [17]: 8.88%
viability, T/C [18]: 75.3%
viability, T/C [19]: 69.7%
viability, T/C [20]: 65.1%
viability, T/C [21]: 52.4%
viability, T/C [22]: 38.5%
viability, T/C [23]: 8.55%
viability, T/C [24]: 69.6%
viability, T/C [25]: 77.9%
viability, T/C [26]: 57.1%
viability, T/C [27]: 46.9%
viability, T/C [28]: 36.3%
viability, T/C [29]: 8.4%
viability, T/C [30]: 74.6%
viability, T/C [31]: 62%
viability, T/C [32]: 54.6%
viability, T/C [33]: 57.4%
viability, T/C [34]: 30.8%
viability, T/C [35]: 5.06%

CC1COCCN1c1cc(-c2ccnn2C)c2ccnc(-c3ccn[nH]3)c2n1 (configuration not stated) + NC1CCC(NC2CC2c2ccccc2)CC1
IC50 [1]: 23 nM
IC50 [2]: 21.8 nM
IC50 [3]: 35.3 nM
IC50 [4]: 24.4 nM
IC50 [5]: 31.8 nM
viability, T/C [36]: 85.9%
viability, T/C [37]: 67.7%
viability, T/C [38]: 42.8%
viability, T/C [39]: 33%
viability, T/C (second compound 0.1 µM, first compound 0.316 µM): 32.3%
viability, T/C (second compound 0.1 µM, first compound 1 µM): 27.1%
viability, T/C [40]: 79.6%
viability, T/C [41]: 59%
viability, T/C [42]: 48.1%
viability, T/C [43]: 32.3%
viability, T/C (second compound 0.316 µM, first compound 0.316 µM): 28.1%
viability, T/C (second compound 0.316 µM, first compound 1 µM): 27.7%
viability, T/C [44]: 78.1%
viability, T/C [45]: 67.7%
viability, T/C [46]: 52%
viability, T/C [47]: 35.9%
viability, T/C (second compound 1 µM, first compound 0.316 µM): 33.9%
viability, T/C (second compound 1 µM, first compound 1 µM): 27.9%
viability, T/C [48]: 92.2%
viability, T/C [49]: 64.1%
viability, T/C [50]: 44.8%
viability, T/C [51]: 37.3%
viability, T/C (second compound 3.16 µM, first compound 0.316 µM): 31.1%
viability, T/C (second compound 3.16 µM, first compound 1 µM): 27.8%
viability, T/C [52]: 84.4%
viability, T/C [53]: 68.1%
viability, T/C [54]: 50.9%
viability, T/C [55]: 36.5%
viability, T/C (second compound 10 µM, first compound 0.316 µM): 33.5%
viability, T/C (second compound 10 µM, first compound 1 µM): 30.1%

O=C(C=Cc1cccc(S(=O)(=O)Nc2ccccc2)c1)NO + NC1CCC(NC2CC2c2ccccc2)CC1
IC50 [1]: 435 nM
IC50 [2]: 538 nM
IC50 [3]: 513 nM
IC50 [4]: 501 nM
IC50 [5]: 449 nM
viability, T/C [6]: 81.9%
viability, T/C [7]: 97.9%
viability, T/C [8]: 108%
viability, T/C [9]: 56.1%
viability, T/C [10]: 28.6%
viability, T/C [11]: 3.54%
viability, T/C [12]: 89.3%
viability, T/C [13]: 82.6%
viability, T/C [14]: 91.4%
viability, T/C [15]: 70.3%
viability, T/C [16]: 29.3%
viability, T/C [17]: 3.12%
viability, T/C [18]: 96.4%
viability, T/C [19]: 100%
viability, T/C [20]: 88.3%
viability, T/C [21]: 71.6%
viability, T/C [22]: 26.2%
viability, T/C [23]: 2.35%
viability, T/C [24]: 98.4%
viability, T/C [25]: 83.1%
viability, T/C [26]: 92.4%
viability, T/C [27]: 61.9%
viability, T/C [28]: 32.3%
viability, T/C [29]: 2.77%
viability, T/C [30]: 95.4%
viability, T/C [31]: 96%
viability, T/C [32]: 101%
viability, T/C [33]: 60.3%
viability, T/C [34]: 25.8%
viability, T/C [35]: 3.12%

CC(C)CC(NC(=O)CNC(=O)c1cc(Cl)ccc1Cl)B1OC(=O)CC(CC(=O)O)(C(=O)O)O1 (configuration not stated) + NC1CCC(NC2CC2c2ccccc2)CC1
IC50 [1]: 9.68 nM
IC50 [2]: 13.9 nM
IC50 [3]: 10.9 nM
IC50 [4]: 11.1 nM
IC50 [5]: 11.5 nM
viability, T/C (second compound 0.1 µM, first compound 0.000316 µM): 98.5%
viability, T/C (second compound 0.1 µM, first compound 0.001 µM): 102%
viability, T/C [36]: 106%
viability, T/C [37]: 48.4%
viability, T/C [38]: 28.5%
viability, T/C [39]: 10.7%
viability, T/C (second compound 0.316 µM, first compound 0.000316 µM): 80.7%
viability, T/C (second compound 0.316 µM, first compound 0.001 µM): 102%
viability, T/C [40]: 99%
viability, T/C [41]: 60.4%
viability, T/C [42]: 21.9%
viability, T/C [43]: 8.68%
viability, T/C (second compound 1 µM, first compound 0.000316 µM): 87.8%
viability, T/C (second compound 1 µM, first compound 0.001 µM): 90.5%
viability, T/C [44]: 95.8%
viability, T/C [45]: 52.7%
viability, T/C [46]: 19.4%
viability, T/C [47]: 10.1%
viability, T/C (second compound 3.16 µM, first compound 0.000316 µM): 99.1%
viability, T/C (second compound 3.16 µM, first compound 0.001 µM): 85.4%
viability, T/C [48]: 106%
viability, T/C [49]: 53.1%
viability, T/C [50]: 26.5%
viability, T/C [51]: 9.89%
viability, T/C (second compound 10 µM, first compound 0.000316 µM): 98.2%
viability, T/C (second compound 10 µM, first compound 0.001 µM): 104%
viability, T/C [52]: 122%
viability, T/C [53]: 55.4%
viability, T/C [54]: 18.4%
viability, T/C [55]: 5%

CC1(C)CCC(CN2CCN(c3ccc(C(=O)NS(=O)(=O)c4ccc(NCC5CCOCC5)c([N+](=O)[O-])c4)c(Oc4cnc5[nH]ccc5c4)c3)CC2)=C(c2ccc(Cl)cc2)C1
viability, T/C (compound 0.0316 µM): 92.8% and 101%
viability, T/C (compound 0.1 µM): 106% and 102%
viability, T/C (compound 0.316 µM): 97% and 104%
viability, T/C (compound 1 µM): 83.8% and 97.2%
viability, T/C (compound 3.16 µM): 92.2% and 85.6%
viability, T/C (compound 10 µM): 60.5% and 26.7%
IC50 (curve of compound): > 10000 nM and 6320 nM
